Measured values: US12502379B2, “Ponesimod for avoiding worsening of fatigue-related symptoms in multiple sclerosis patients” (Vanda Pharmaceuticals Inc., priority 2019, dated 2025)

Legend:
[1] = tested on: adult subjects with relapsing MS; assay: FSIQ-RMS weekly symptoms score, change from baseline to Week 108; format: in vivo, human
Excerpt: In some embodiments, the patient-reported outcome questionnaire is the Fatigue Symptoms and Impact Questionnaire—Relapsing Multiple Sclerosis (FSIQ-RMS) (available from Mapi Research Trust). The FSIQ-RMS is an MS specific 20-item PRO measure that comprises 2 domains: one measuring MS symptoms and one measuring MS-related impacts. See Hudgens S, et al., Development and Validation of the FSIQ-RMS: A New Patient-Reported Questionnaire to Assess Symptoms and Impacts of Fatigue in Relapsing Multiple Sclerosis. Value Health. 2019 April; 22 (4): 453-466. doi: 10.1016/j.jval.2018.11.007. Epub 2019 Feb. 21. PubMed PMID: 30975397. With 7 symptom items and 13 impact items (in 3 impacts subdomains: physical, cognitive and emotional, and coping), the FSIQ-RMS is a comprehensive, valid, and reliable measure of fatigue-related symptoms and impacts in RMS patients. FIG. 2B depicts a conceptual framework for the FSIQ-RMS.
(§1) In some embodiments, the patient-reported outcome questionnaire is the symptom domain of the FSIQ-RMS. The FSIQ-RMS symptom domain (FSIQ-RMS-S) consists of seven items assessing fatigue-related symptoms with a recall period of 24 hours measured on an 11-point numeric rating scale; the standardized symptom domain score ranges from 0 to 100 with a higher score indicating greater fatigue. This domain (i.e., section 1 of the questionnaire) is completed on 7 consecutive days.
The patient-reported outcome questionnaire used for the below Examples is the Fatigue Symptoms and Impact Questionnaire-Relapsing Multiple Sclerosis (FSIQ-RMS). The FSIQ-RMS is an MS specific 20-item PRO measure that comprises 2 domains: one measuring MS symptoms (7 items) and one measuring MS-related impacts (13 items). The 7 symptom items and 13 impact items (in 3 impacts subdomains: physical, cognitive and emotional, and coping) are presented below.
For the MS symptoms domain, the FSIQ-RMS asks about a patient's fatigue-related symptoms of relapsing MS over the past 24 hours while doing routine daily activities (e.g., housework, yard work, shopping, working, etc.) for Items 1-6 or while at rest (e.g., reading a book, watching TV, etc.) for Item 7. Patients are asked to select a response on a scale of Oto 10 that best describes their experience and are asked to not skip any questions, with no answers being right or wrong.
(§2) Secondary efficacy variables and testing strategy: Four secondary efficacy endpoints were analyzed as per the statistical testing strategy outlined in FIG. 1. • Change from baseline to Week 108 in fatigue-related symptoms as measured by the symptoms domain of the FSIQ-RMS patient-reported outcome [Fatigue] • Cumulative number of combined unique active lesions from baseline to Week 108 on brain MRI [CUALs] • Time to first 12-week confirmed disability accumulation (CDA) from baseline to EOS on Expanded Disability Status Scale (EDSS) [12-week CDA] • Time to first 24-week CDA from baseline to EOS on EDSS [24-week CDA]
as §1, with “The” for “In some embodiments, the patient-reported outcome questionnaire is the symptom domain of the FSIQ-RMS. The”
FSIQ-RMS was completed during the pre-randomization period, at Visits 6, 7, 10, and 12 (Weeks 12, 24, 60, 84), 14 (EOT), and at unscheduled visits due to relapses (R1, R2, etc.) or other unscheduled visits (U1, U2, etc.) as described below. If applicable, FSIQ-RMS was performed at the corresponding visits in the PTOP.
The completion of the FSIQ-RMS during the pre-randomization period was done as follows: At Visit 1 (Screening), subjects who appear eligible based on the assessments made during this visit (but prior to the results from the laboratory assessments are received) were provided with the electronic device containing the FSIQ-RMS. […]

[2] = tested on: adult subjects with relapsing MS; assay: Combined unique active lesions (CUAL) on brain MRI from baseline to Week 108; format: in vivo, human
Experimental: as §2
CUAL are new Gd+T1 lesions plus new or enlarging T2 lesions (without double-counting of lesions).
MRI scans were performed at Visits 2 (Baseline), 10 (Week 60), and 14 (EOT) and at any unscheduled visit (U1, U2, etc.). If applicable, MRI scans also were performed at the corresponding visits in the PTOP (Visits 10A and 14A). Testing at all visits were performed up to 7 days prior to or after the visit date.
MRI variables included the number and volume of new and total Gd+ lesions on T1-weighted MRI scans, number of new and enlarging lesions and lesion volume on T2-weighted MRI, and global measures of loss of brain tissue.
T1-weighted imaging before and after i.v. administration of 0.1 mmol/kg body weight (=0.2 mL/kg) of Gd as well as PD-T2-weighted imaging was performed. […]

[3] = Reasons for premature treatment discontinuation; format: in vivo
Experimental: A total of 1468 subjects were screened. Of those, 1133 subjects were randomized (567 to ponesimod 20 mg and 566 to teriflunomide 14 mg) across 162 sites in 28 countries, and 1131 subjects received at least one dose of study drug. The disposition of subjects is summarized in Table 1 and a summary of reasons (primary reason) for treatment discontinuation are shown in Table 2. Overall treatment and study discontinuation were balanced across both treatment arms. A total of 6.5% and 2.5% of the subjects discontinued due to AEs or tolerability related reasons in ponesimod 20 mg and teriflunomide 14 mg, respectively, while 1.9% and 4.3% discontinued due to efficacy related reasons. There were 2 deaths reported during the study—both on teriflunomide 14 mg.

[4] = Treatment-emergent adverse events, Safety Set
Experimental: A prospective, multicenter, randomized, double-blind, active controlled, parallel-group, phase III, superiority study was conducted.
The Safety Set (SAF) included all randomized subjects who received at least one dose of study treatment. Subjects were analyzed based on actual treatment taken, not randomized treatment.

[5] = patients with no prior DMT treatment within about two years, FSIQ-RMS weekly symptoms score
[6] = patients without Gd+T1 lesions at baseline, FSIQ-RMS weekly symptoms score
[7] = Safety Set, ponesimod 20 mg N = 565, teriflunomide 14 mg N = 566
[8] = ponesimod 20 mg, teriflunomide 14 mg
[9] = Day 1 (ponesimod dose 2 mg per up-titration), Safety Set, N = 565 / 566

For `CCC/N=C1\S/C(=C\c2ccc(OC[C@H](O)CO)c(Cl)c2)C(=O)N1c1ccccc1C` [Ponesimod, (R)-5-[3-chloro-4-(2,3-dihydroxy-propoxy)-benz[Z]ylidene]-2-([Z]-propylimino)-3-o-tolyl-thiazolidin-4-one], the “Change from baseline to Week 108 in FSIQ-RMS weekly symptoms score (mean)” value ([1]; MMRM, Full Analysis Set, increase = worsening, ponesimod 20 mg, teriflunomide 14 mg) was −0.01, the “Change From Baseline to Week 108: Stable or Improved” value ([1]; patients with baseline fatigue below the median, FSIQ-RMS weekly symptoms score) was ~65% and the “Change From Baseline to Week 108: Stable (−6.3 < x < +6.3)” value [1, 5] was 44.0%. For the same compound, the “Change From Baseline to Week 108: Stable or Improved” value [1, 5] was “about 75%”, the “Change From Baseline to Week 108: Improved (<−6.3)” value [1, 6] was 30.0% and the “Change From Baseline to Week 108: Stable or Improved” value [1, 6] was “about 68%”. The “Reduction of the number of CUALs between baseline and week 108 compared to teriflunomide 14 mg” value ([2]; ponesimod 20 mg) was 56%, the “CUAL treatment effect (Rate Ratio)” value ([2]; ponesimod 20 mg vs teriflunomide 14 mg, baseline to Week 108) was 0.44 and the “Premature treatment discontinuation: Death” value [3, 7] was 0 n. For the same compound, the “Subjects who discontinued due to AEs or tolerability related reasons” value [3, 8] was 6.5%, the “AESI effect on heart rate and rhythm (including hypotension) on Day 1: Subjects with at least one AE” value [4, 9] was 2.1% and the “AESI heart rate and rhythm on Day 1, PT: Electrocardiogram QT prolonged” value [4, 9] was 0 n. The “AESI heart rate and rhythm on Day 1, PT: Presyncope” value [4, 9] was 0 n, the “Subject with at least one AE (treatment-emergent)” value [4, 7] was 88.8% and the “Subject with at least one AE leading to study drug discontinuation” value [4, 7] was 8.7%. For the same compound, the “Subject with at least one Fatal AE” value [4, 7] was 0 n, the “Subject with at least one Serious AE” value [4, 7] was 8.7% and the “TEAEs leading to premature discontinuation of study drug, SOC: Reproductive system and breast disorders” value [4, 7] was 0 n. For the same compound, the “TEAEs leading to premature discontinuation of study drug, SOC: Surgical and medical procedures” value [4, 7] was 0 n, the “Treatment-emergent AESI: Hepatobiliary disorders/Liver enzyme abnormality” value [4, 7] was 25.7% and the “Treatment-emergent AESI: Hypertension” value [4, 7] was 10.1%. The “Treatment-emergent AESI: Pulmonary events” value [4, 7] was 8.0%, the “TEAE: ALT increased” value [4, 8] was 19.5% and the “TEAE: headache” value [4, 8] was 11.5%. The “TEAE: nasopharyngitis” value [4, 8] was 19.3% and the “TEAE: upper respiratory tract infection” value [4, 8] was 10.6%.
